Biological target: T1, F508del (Homo sapiens, UniProt P13569, DEL508-508)
T1 construct: expressed in transfected cells
Assay: Protocol 2: FRET membrane potential optical assay (VIPR), identification of correction compounds
Assay type: cell-based
Conditions: Table 3; compounds of Table 1 as modulators of CFTR activity; protocol not stated
Method in brief: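 Single-addition HTS format: F508del-expressing NIH3T3 cells pre-incubated 16 hrs at 37° C. ± compound, with 27° C. culture as positive control. Channel activation by forskolin 10 μM and genistein 20 μM upon switch to gluconate bath, pH 7.4; read-out is FRET-based depolarization signal.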

T1 sequence (P13569 with tags, fused parts or gaps DEL508-508): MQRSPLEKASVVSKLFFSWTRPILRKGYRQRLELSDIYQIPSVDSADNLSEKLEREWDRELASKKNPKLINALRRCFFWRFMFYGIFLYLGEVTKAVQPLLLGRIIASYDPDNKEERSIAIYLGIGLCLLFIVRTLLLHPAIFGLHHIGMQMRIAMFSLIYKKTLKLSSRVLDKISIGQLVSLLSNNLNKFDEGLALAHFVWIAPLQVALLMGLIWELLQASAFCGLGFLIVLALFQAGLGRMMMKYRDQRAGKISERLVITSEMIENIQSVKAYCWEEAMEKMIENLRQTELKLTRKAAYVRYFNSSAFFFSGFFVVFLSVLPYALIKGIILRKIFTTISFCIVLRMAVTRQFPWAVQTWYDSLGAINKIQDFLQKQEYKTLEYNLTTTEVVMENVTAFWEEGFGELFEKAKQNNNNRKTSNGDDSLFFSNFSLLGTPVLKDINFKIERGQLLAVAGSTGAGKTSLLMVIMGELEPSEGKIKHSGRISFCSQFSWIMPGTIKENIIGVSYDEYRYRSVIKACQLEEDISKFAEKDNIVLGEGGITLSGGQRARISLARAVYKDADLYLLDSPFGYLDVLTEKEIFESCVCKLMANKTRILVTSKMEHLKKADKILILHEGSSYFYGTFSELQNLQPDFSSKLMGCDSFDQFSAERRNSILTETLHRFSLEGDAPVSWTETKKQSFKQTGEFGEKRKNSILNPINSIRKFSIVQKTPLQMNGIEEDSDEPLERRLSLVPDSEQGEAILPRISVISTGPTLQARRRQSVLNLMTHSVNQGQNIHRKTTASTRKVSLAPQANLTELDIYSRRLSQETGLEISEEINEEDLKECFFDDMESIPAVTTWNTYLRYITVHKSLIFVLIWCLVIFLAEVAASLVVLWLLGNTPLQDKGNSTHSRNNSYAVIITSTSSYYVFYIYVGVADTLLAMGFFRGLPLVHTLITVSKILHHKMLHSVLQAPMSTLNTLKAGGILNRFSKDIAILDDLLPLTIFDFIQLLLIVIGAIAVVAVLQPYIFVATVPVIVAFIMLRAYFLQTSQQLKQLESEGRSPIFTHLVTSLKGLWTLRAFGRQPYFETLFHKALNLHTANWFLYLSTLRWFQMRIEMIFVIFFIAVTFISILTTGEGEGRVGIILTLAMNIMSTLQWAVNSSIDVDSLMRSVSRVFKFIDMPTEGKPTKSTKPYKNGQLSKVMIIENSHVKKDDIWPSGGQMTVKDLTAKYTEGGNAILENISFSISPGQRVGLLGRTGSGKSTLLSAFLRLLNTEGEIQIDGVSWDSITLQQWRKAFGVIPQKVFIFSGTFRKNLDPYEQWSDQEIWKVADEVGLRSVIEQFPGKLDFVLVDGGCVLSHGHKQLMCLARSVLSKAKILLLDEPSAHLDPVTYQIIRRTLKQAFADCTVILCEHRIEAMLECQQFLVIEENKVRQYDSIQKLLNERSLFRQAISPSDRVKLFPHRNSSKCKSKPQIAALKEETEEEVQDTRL

Compound	EC30
Cc1cc(C)c(CN2Cc3ccccc3C2(C)C(=O)NS(=O)(=O)c2nccnc2N)c(C)c1 (stereo not shown) [Compound 480, N-(3-aminopyrazin-2-yl)sulfonyl-1-methyl-2-[(2,4,6-trimethylphenyl)methyl]isoindoline-1-carboxamide]	+++ (“+++” means <3 uM)
CC(C)COc1cc(F)cc(-c2ccc(C(=O)NS(=O)(=O)c3ccc[nH]c3=O)c(N3CCC[C@@H](c4ccccc4)C3)n2)c1 [Compound 481, 6-(3-fluoro-5-isobutoxy-phenyl)-N-[(2-oxo-1H-pyridin-3-yl)sulfonyl]-2-[(3S)-3-phenyl-1-piperidyl]pyridine-3-carboxamide]	+++ (“+++” means <3 uM)
Cc1cc(C)c(Oc2nc(C)ccc2C(=O)NS(=O)(=O)c2cccc(NC(C)C)n2)c(C)c1 [Compound 482, N-[[6-(isopropylamino)-2-pyridyl]sulfonyl]-6-methyl-2-(2,4,6-trimethylphenoxy)pyridine-3-carboxamide]	+++ (“+++” means <3 uM)
Cc1cc(C(=O)NS(=O)(=O)c2cccc(N)n2)c(N2[C@H](C)CC[C@@H]2C)nc1-c1cc(F)cc(OCC(C)C)c1 [Compound 483, N-[(6-amino-2-pyridyl)sulfonyl]-2-[(2R,5S)-2,5-dimethylpyrrolidin-1-yl]-6-(3-fluoro-5-isobutoxy-phenyl)-5-methyl-pyridine-3-carboxamide]	+++ (“+++” means <3 uM)
COc1cccc(-c2ccc(C(=O)NS(=O)(=O)c3cccc(N)n3)c(Oc3c(C)cc(C)cc3C)n2)c1OC [Compound 485, N-[(6-amino-2-pyridyl)sulfonyl]-6-(2,3-dimethoxyphenyl)-2-(2,4,6-trimethylphenoxy)pyridine-3-carboxamide]	+++ (“+++” means <3 uM)
Cc1cc(C(=O)NS(=O)(=O)c2cccc(N)n2)c(N2[C@H](C)CC[C@@H]2C)nc1-c1ccc(OC(C)C)nc1 [Compound 486, N-[(6-amino-2-pyridyl)sulfonyl]-2-[(2R,5S)-2,5-dimethylpyrrolidin-1-yl]-6-(6-isopropoxy-3-pyridyl)-5-methyl-pyridine-3-carboxamide]	++ (“++” means between 3 uM and 10 uM)
CC(C)Oc1cc(F)cc(-c2ccc(C(=O)NS(=O)(=O)c3ccc[nH]c3=O)c(N3[C@H](C)CC[C@@H]3C)n2)c1 [Compound 487, 2-[(2S,5R)-2,5-dimethylpyrrolidin-1-yl]-6-(3-fluoro-5-isopropoxy-phenyl)-N-[(2-oxo-1H-pyridin-3-yl)sulfonyl]pyridine-3-carboxamide]	++ (“++” means between 3 uM and 10 uM)
CC(C)COc1cc(F)cc(-c2ccc(C(=O)NS(=O)(=O)c3cccc(N)n3)c(N3CC(c4ccccc4)CC3C)n2)c1 (stereo not shown) [Compound 488, N-[(6-amino-2-pyridyl)sulfonyl]-6-(3-fluoro-5-isobutoxy-phenyl)-2-(2-methyl-4-phenyl-pyrrolidin-1-yl)pyridine-3-carboxamide]	+++ (“+++” means <3 uM)
CC(C)Oc1ccc(-c2ccc(C(=O)NS(=O)(=O)c3cccc(N)n3)c(N3CCCC(c4ccccn4)C3)n2)cn1 (stereo not shown) [Compound 489, N-[(6-amino-2-pyridyl)sulfonyl]-6-(6-isopropoxy-3-pyridyl)-2-[3-(2-pyridyl)-1-piperidyl]pyridine-3-carboxamide]	+++ (“+++” means <3 uM)
CC(C)COc1cc(F)cc(-c2ccc(C(=O)NS(=O)(=O)c3cccc(N)n3)c(N3CC4CC4C3C(F)(F)F)n2)c1 (stereo not shown) [Compound 490, N-[(6-amino-2-pyridyl)sulfonyl]-6-(3-fluoro-5-isobutoxy-phenyl)-2-[4-(trifluoromethyl)-3-azabicyclo[3.1.0]hexan-3-yl]pyridine-3-carboxamide]	+++ (“+++” means <3 uM)
CCCOc1cc(-c2ccc(C(=O)NS(=O)(=O)c3cccc(N)n3)c(N3CC(C)CC3(C)C)n2)ccn1 (stereo not shown) [Compound 491, N-[(6-amino-2-pyridyl)sulfonyl]-6-(2-propoxy-4-pyridyl)-2-(2,2,4-trimethylpyrrolidin-1-yl)pyridine-3-carboxamide]	+++ (“+++” means <3 uM)
CC(C)COc1cc(F)cc(-c2ccc(C(=O)NS(=O)(=O)c3ccc[nH]c3=O)c(N3C[C@@H](C)CC3(C)C)n2)c1 [Compound 492, 6-(3-fluoro-5-isobutoxy-phenyl)-N-[(2-oxo-1H-pyridin-3-yl)sulfonyl]-2-[(4S)-2,2,4-trimethylpyrrolidin-1-yl]pyridine-3-carboxamide]	+++ (“+++” means <3 uM)
CCC(C)(C)C1CCCN1c1nc(-c2cc(F)cc(OCC(C)C)c2)ccc1C(=O)NS(=O)(=O)c1cccc(N)n1 (stereo not shown) [Compound 493, N-[(6-amino-2-pyridyl)sulfonyl]-2-[2-(1,1-dimethylpropyl)pyrrolidin-1-yl]-6-(3-fluoro-5-isobutoxy-phenyl)pyridine-3-carboxamide]	+++ (“+++” means <3 uM)
Cc1cc(C)c(Oc2nc(-c3ccc(OC(C)C)cc3)ccc2C(=O)NS(=O)(=O)c2ccc[nH]c2=O)c(C)c1 [Compound 494, 6-(4-isopropoxyphenyl)-N-[(2-oxo-1H-pyridin-3-yl)sulfonyl]-2-(2,4,6-trimethylphenoxy)pyridine-3-carboxamide]	+++ (“+++” means <3 uM)
C[C@@H]1CC[C@H](C)N1c1nc(-c2cncc(OC3CCCC3)c2)ccc1C(=O)NS(=O)(=O)c1cccc(N)n1 [Compound 495, N-[(6-amino-2-pyridyl)sulfonyl]-6-[5-(cyclopentoxy)-3-pyridyl]-2-[(2S,5R)-2,5-dimethylpyrrolidin-1-yl]pyridine-3-carboxamide]	++ (“++” means between 3 uM and 10 uM)
CC(C)COc1cc(F)cc(-c2ccc(C(=O)NS(=O)(=O)c3cccc(N)n3)c(N3C(C)CCC3(C)C)n2)c1 (stereo not shown) [Compound 496, N-[(6-amino-2-pyridyl)sulfonyl]-6-(3-fluoro-5-isobutoxy-phenyl)-2-(2,2,5-trimethylpyrrolidin-1-yl)pyridine-3-carboxamide]	+++ (“+++” means <3 uM)
CC(C)Oc1ccc(-c2ccc(C(=O)NS(=O)(=O)c3ccc[nH]c3=O)c(N3C[C@@H](C)CC3(C)C)n2)cn1 [Compound 497, 6-(6-isopropoxy-3-pyridyl)-N-[(2-oxo-1H-pyridin-3-yl)sulfonyl]-2-[(4S)-2,2,4-trimethylpyrrolidin-1-yl]pyridine-3-carboxamide]	+++ (“+++” means <3 uM)
CC(C)COc1cc(F)cc(-c2ccc(C(=O)NS(=O)(=O)c3ccn[nH]3)c(N3CCCC(C(C)C)C3)n2)c1 (stereo not shown) [Compound 498, 6-(3-fluoro-5-isobutoxy-phenyl)-2-(3-isopropyl-1-piperidyl)-N-(1H-pyrazol-5-ylsulfonyl)pyridine-3-carboxamide]	+++ (“+++” means <3 uM)
COc1ncc(-c2ccc(C(=O)NS(=O)(=O)c3cccc(N)n3)c(Oc3c(C)cc(C)cc3C)n2)c(OC)n1 [Compound 499, N-[(6-amino-2-pyridyl)sulfonyl]-6-(2,4-dimethoxypyrimidin-5-yl)-2-(2,4,6-trimethylphenoxy)pyridine-3-carboxamide]	++ (“++” means between 3 uM and 10 uM)
CCCN(CC1CC1)c1nc(-c2ccc(OC(C)C)nc2)ccc1C(=O)NS(=O)(=O)c1cccc(N)n1 [Compound 500, N-[(6-amino-2-pyridyl)sulfonyl]-2-[cyclopropylmethyl(propyl)amino]-6-(6-isopropoxy-3-pyridyl)pyridine-3-carboxamide]	+++ (“+++” means <3 uM)
Cc1cc(C)c(Oc2nc(C(C)(C)C)ccc2C(=O)NS(=O)(=O)c2cccc(C(F)F)n2)c(C)c1 [Compound 501, 6-tert-butyl-N-[[6-(difluoromethyl)-2-pyridyl]sulfonyl]-2-(2,4,6-trimethylphenoxy)pyridine-3-carboxamide]	+++ (“+++” means <3 uM)
CC(C)Oc1ccc(-c2ccc(C(=O)NS(=O)(=O)c3cccc(N)n3)c(N3CC(c4ccccc4)CC3C)n2)cn1 (stereo not shown) [Compound 502, N-[(6-amino-2-pyridyl)sulfonyl]-6-(6-isopropoxy-3-pyridyl)-2-(2-methyl-4-phenyl-pyrrolidin-1-yl)pyridine-3-carboxamide]	+++ (“+++” means <3 uM)
CC(C)COc1cc(F)cc(-c2ccc(C(=O)NS(=O)(=O)c3cccc(N)n3)c(OC3CCC(C)C3C)n2)c1 (stereo not shown) [Compound 503, N-[(6-amino-2-pyridyl)sulfonyl]-2-(2,3-dimethylcyclopentoxy)-6-(3-fluoro-5-isobutoxy-phenyl)pyridine-3-carboxamide]	+++ (“+++” means <3 uM)
CC1CN(c2nc(-c3ccc(Cl)c(OC(C)C)c3)ccc2C(=O)NS(=O)(=O)c2cccc(N)n2)C(C)(C)C1 (stereo not shown) [Compound 504, N-[(6-amino-2-pyridyl)sulfonyl]-6-(4-chloro-3-isopropoxy-phenyl)-2-(2,2,4-trimethylpyrrolidin-1-yl)pyridine-3-carboxamide]	+++ (“+++” means <3 uM)
Cc1cc(C)c(Oc2nc(-c3cc(O)cc(F)c3)ccc2C(=O)NS(=O)(=O)c2cccc(N)n2)c(C)c1 [Compound 505, N-[(6-amino-2-pyridyl)sulfonyl]-6-(3-fluoro-5-hydroxy-phenyl)-2-(2,4,6-trimethylphenoxy)pyridine-3-carboxamide]	++ (“++” means between 3 uM and 10 uM)
CC(C)COc1cc(F)cc(-c2ccc(C(=O)NS(=O)(=O)c3ccn[nH]3)c(N3CCC4(CC3)OCc3ccccc34)n2)c1 [Compound 506, 6-(3-fluoro-5-isobutoxy-phenyl)-N-(1H-pyrazol-5-ylsulfonyl)-2-spiro[1H-isobenzofuran-3,4′-piperidine]-1′-yl-pyridine-3-carboxamide]	+++ (“+++” means <3 uM)
CCOc1ccc(-c2ccc(C(=O)NS(=O)(=O)c3nccnc3N)c(N3CCC(C)CC3)n2)cc1 [Compound 507, N-(3-aminopyrazin-2-yl)sulfonyl-6-(4-ethoxyphenyl)-2-(4-methyl-1-piperidyl)pyridine-3-carboxamide]	+++ (“+++” means <3 uM)
Cc1cc(C)c(CN2Cc3c(-c4ccccc4)cccc3C2C(=O)NS(=O)(=O)c2ccc[nH]c2=O)c(C)c1 (stereo not shown) [Compound 508, N-[(2-oxo-1H-pyridin-3-yl)sulfonyl]-4-phenyl-2-[(2,4,6-trimethylphenyl)methyl]isoindoline-1-carboxamide]	++ (“++” means between 3 uM and 10 uM)

From patent US10758534B2 (Vertex Pharmaceuticals Incorporated, priority 2014, dated 2020)
